Patent US12642773B2, “Coated drug compositions and methods of preparing the same” (Applied Materials, Inc., priority 2020, dated 2026)
Values after ≈ are worked out from the molar mass of the structure shown.

Assay: Solubility of ezetimibe
Type: physicochemical
From the text: Crystallization decreases the solubility of ezetimibe. […] In contrast, the release rate from coated 50% drug loading ASD particles barely changed.

Structure (SMILES)	solubility
O=C1[C@H](CC[C@H](O)c2ccc(F)cc2)[C@@H](c2ccc(O)cc2)N1c1ccc(F)cc1 [amorphous ezetimibe, ezetimibe]	20.2 ± 0.4 µg/mL (≈ 49.3 µM)
O=C1[C@H](CC[C@H](O)c2ccc(F)cc2)[C@@H](c2ccc(O)cc2)N1c1ccc(F)cc1 [crystalline ezetimibe, ezetimibe]	0.8 ± 0.3 µg/mL (≈ 1.95 µM)
